Data set [1] deals with T1, IL-23-stimulated phosphorylated STAT3 in peripheral blood mononuclear cells (PBMCs) (Homo sapiens, UniProt Q5VWK5).
T1 sequence (Q5VWK5 24-629): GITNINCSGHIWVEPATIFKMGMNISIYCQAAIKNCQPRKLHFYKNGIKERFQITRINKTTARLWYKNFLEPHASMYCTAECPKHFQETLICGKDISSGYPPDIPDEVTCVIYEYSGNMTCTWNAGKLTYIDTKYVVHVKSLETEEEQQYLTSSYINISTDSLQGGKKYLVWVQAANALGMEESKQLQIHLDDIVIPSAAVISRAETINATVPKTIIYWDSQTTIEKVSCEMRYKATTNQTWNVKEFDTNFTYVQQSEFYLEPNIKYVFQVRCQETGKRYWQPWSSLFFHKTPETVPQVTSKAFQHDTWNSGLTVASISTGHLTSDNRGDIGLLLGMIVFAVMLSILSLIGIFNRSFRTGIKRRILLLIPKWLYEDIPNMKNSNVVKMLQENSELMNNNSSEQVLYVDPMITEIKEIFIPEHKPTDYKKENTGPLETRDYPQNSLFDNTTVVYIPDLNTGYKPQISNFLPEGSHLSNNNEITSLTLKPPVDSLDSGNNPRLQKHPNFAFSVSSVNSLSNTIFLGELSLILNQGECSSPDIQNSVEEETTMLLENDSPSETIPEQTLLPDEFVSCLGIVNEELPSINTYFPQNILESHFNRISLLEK
Briefly: PBMC pSTAT3 Assay. It is filed as cell-based. In short, it runs like this: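 Anti-CD3/IL-1β-expanded donor PBMCs (day 4) starved ~4 h in RPMI-0.1% BSA, preincubated 30 min with peptide, then stimulated 30 min at 37° C with 5 ng/mL IL-23 (final). Lysates read for phospho-STAT3 by Meso Scale phospho-STAT panel immunoassay.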

The target of data set [2] is T2, IL-23R (Homo sapiens, UniProt Q5VWK5).
T2 construct: host or cells: HEK293
T2 sequence (Q5VWK5 24-629): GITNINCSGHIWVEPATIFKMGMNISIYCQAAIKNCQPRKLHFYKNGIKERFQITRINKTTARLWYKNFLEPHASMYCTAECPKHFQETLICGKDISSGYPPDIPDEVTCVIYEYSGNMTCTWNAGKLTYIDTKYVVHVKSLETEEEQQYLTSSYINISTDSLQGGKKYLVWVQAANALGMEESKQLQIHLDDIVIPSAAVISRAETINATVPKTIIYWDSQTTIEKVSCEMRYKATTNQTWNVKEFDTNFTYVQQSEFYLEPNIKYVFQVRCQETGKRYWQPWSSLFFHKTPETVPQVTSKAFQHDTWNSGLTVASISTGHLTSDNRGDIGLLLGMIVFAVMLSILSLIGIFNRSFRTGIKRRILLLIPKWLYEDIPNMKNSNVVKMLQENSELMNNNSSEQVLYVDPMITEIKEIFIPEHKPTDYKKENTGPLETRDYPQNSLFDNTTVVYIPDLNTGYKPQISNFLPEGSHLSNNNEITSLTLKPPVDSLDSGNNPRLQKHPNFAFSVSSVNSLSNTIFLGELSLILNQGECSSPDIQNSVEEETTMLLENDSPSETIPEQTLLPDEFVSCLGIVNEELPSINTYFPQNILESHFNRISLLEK
Nature of the data set: IL23R Reporter Assay. It is filed as cell-based. The procedure: Compounds were serially diluted in 100% (v/v) DMSO) and plated using an Echo acoustic dispenser (Labcyte) into 1536-well non-treated black assay plates (Corning #9146). […] After 5 h at 37° C., 5% CO2, 95% relative humidity, cells were placed at 20° C. and treated with BioGlo reagent (Promega) according to the Manufacturer's instructions. Luminescence was measured on a Pherastar FSX (BMG LabTech).
A general note: In a reporter assay the amount or activity of a reporter protein is the signal.

For data set [3] the following is noted: disulfide bond, 20-membered ring.
Data set [4] concerns the target T3, interleukin-23 receptor (IL-23R) (UniProt Q5VWK5 24-629, limits assumed).
T3 sequence (looked up): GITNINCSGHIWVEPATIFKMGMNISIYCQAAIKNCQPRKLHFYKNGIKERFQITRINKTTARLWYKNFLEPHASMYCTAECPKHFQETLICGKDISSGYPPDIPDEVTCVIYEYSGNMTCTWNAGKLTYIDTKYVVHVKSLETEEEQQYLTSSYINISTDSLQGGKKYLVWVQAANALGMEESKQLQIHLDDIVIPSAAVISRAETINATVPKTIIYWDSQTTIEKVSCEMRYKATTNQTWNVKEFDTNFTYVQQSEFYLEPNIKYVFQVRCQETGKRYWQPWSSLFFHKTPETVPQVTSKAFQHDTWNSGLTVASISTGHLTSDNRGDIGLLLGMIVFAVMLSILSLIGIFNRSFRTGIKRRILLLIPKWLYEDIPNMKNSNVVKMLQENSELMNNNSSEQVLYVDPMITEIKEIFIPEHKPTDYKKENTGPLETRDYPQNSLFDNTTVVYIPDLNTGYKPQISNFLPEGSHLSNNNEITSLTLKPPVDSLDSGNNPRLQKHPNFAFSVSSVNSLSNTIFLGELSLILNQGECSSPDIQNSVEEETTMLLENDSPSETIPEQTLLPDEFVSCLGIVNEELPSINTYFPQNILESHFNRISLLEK
Nature of the data set: cell-based or functional assay.

Where two headings read alike, the source gives them in different places. Starred links: 1 amine or outer side, 2 acyl side, 3 side chain; linkers in the order of their positions; H or OH if unused. Positions of bridges follow the written chain, without caps; N, C: chain ends. Non-standard residues stand in square brackets, D forms with d. Residues, ends and D or L forms follow the SMILES beside them. *: point of attachment. AEF(G) = 2-amino-3-(4-(2-guanidinoethoxy)phenyl)propanoic acid, N=C(N)NCCOc1ccc(C[C@H](N[*:1])C(=O)[*:2])cc1; X22 = CN(CCOCCOCC(=O)N(C)CCOCCOCC(=O)*)C(=O)CC[C@@H](C(=O)O)N(C)C(=O)CCCCCCCCCCCCCCCCCc1nnn[nH]1; Trp(7-(3-AcNH-Ph)) = CC(=O)Nc1cccc(-c2cccc3c(C[C@H](N)C(=O)O)c[nH]c23)c1; 2Nal(6-OH) = N[C@@H](Cc1ccc2cc(O)ccc2c1)C(=O)O; Trp(7-Me) = Cc1cccc2c(C[C@H](N)C(=O)O)c[nH]c12; d(hLys(Me3)) = C[N+](C)(C)CCCCC[C@@H](N)C(=O)O; 3Pal(5-Me) = Cc1cncc(C[C@H](N)C(=O)O)c1; AEF = NCCOc1ccc(C[C@H](N)C(=O)O)cc1; 3Pal = N[C@@H](Cc1cccnc1)C(=O)O; Lys(Me) = CNCCCC[C@H](N)C(=O)O; Pen = CC(C)(S)[C@H](N)C(=O)O; Thp = NC1(C(=O)O)CCOCC1; Sar = CNCC(=O)O

As for `CC(=O)N[C@H](CCCCC[N+](C)(C)C)C(=O)N[C@@H]1C(=O)N[C@@H](CC(=O)N(C)C)C(=O)N[C@@H]([C@@H](C)O)C(=O)N[C@@H](Cc2c[nH]c3c(C)cccc23)C(=O)N[C@@H](CCCCN(C)C(C)=O)C(=O)N[C@H](C(=O)N[C@@H](Cc2ccc(OCCN)cc2)C(=O)N[C@@H](Cc2ccc3cc(O)ccc3c2)C(=O)NC2(C(=O)N[C@@H](CCC(=O)O)C(=O)N[C@@H](CC(N)=O)C(=O)N[C@@H](Cc3cccnc3)C(=O)N(C)CC(=O)N(C)C)CCOCC2)C(C)(C)SSC1(C)C` [SEQ ID NO: 389, MeCO-hk(Me)3-Pen(3)-N(N(Me)2)-T-7MeW-K(NMeAc)-Pen(3)-AEF-6OH2Nal-THP-E-N-3Pya-Sar-CON(Me)2] (Ac-[d(hLys(Me3))][Pen]D(NMe2)T[Trp(7-Me)][Lys(Me)](Ac)[Pen][AEF][2Nal(6-OH)][Thp]EN[3Pal][Sar]-NMe2; disulfide 2-7), the IC50 in data set [1] (PBMCs from healthy donors, IL-23 5 ng/mL, 30 minutes, read-out: PBMC pSTAT3 IC50) was less than 0.01 nM; in data set [2] (HEK293 cells containing IL-23R, IL-12Rβ1 and STAT-inducible luciferase reporter, 10 ng/mL IL-23, 5 h, read-out: IC50), less than 10 nM. This molecule also yielded a ring closure, yield after HPLC in data set [3] (from Ac-dhLys(Me3)-Pen-Asn(NMe2)-Thr-7MeTrp-Lys(NMeAc)-Pen-AEF-6OH2Nal-THP-Glu-Asn-3Pya-Sar-NMe2?, I2/MeOH, 20% MeCN/H2O, 0.92 mM) of 11%.
In turn, `CC(=O)NCCCC[C@@H]1NC(=O)[C@H](Cc2c[nH]c3c(C)cccc23)NC(=O)[C@H]([C@@H](C)O)NC(=O)[C@H](CC(N)=O)NC(=O)[C@@H](NC(=O)[C@@H](CCCNC(=N)N)NC(C)=O)C(C)(C)SSC(C)(C)[C@@H](C(=O)N[C@@H](Cc2ccc(OCCN)cc2)C(=O)N[C@@H](Cc2ccc3cc(O)ccc3c2)C(=O)NC2(C(=O)N[C@@H](CCC(=O)O)C(=O)N[C@@H](CC(N)=O)C(=O)N[C@@H](Cc3cccnc3)C(=O)N(C)CC(N)=O)CCOCC2)NC1=O` yielded a ring closure, yield after HPLC in data set [3] (from Ac-dArg-Pen-Asn-Thr-7MeTrp-Lys(Ac)-Pen-AEF-6OH2Nal-THP-Glu-Asn-3Pya-Sar-NH2) of 10.3%.
Turning to `CC(=O)NCCCC[C@@H]1NC(=O)[C@H](Cc2c[nH]c3c(C)cccc23)NC(=O)[C@H]([C@@H](C)O)NC(=O)[C@H](CC(N)=O)NC(=O)[C@@H](NC(=O)[C@@H](CCCNC(=N)N)NC(C)=O)C(C)(C)SSC(C)(C)[C@@H](C(=O)N[C@@H](Cc2ccc(OCCN)cc2)C(=O)N[C@@H](Cc2ccc3cc(O)ccc3c2)C(=O)NC2(C(=O)N[C@@H](CCC(=O)O)C(=O)N[C@@H](CC(N)=O)C(=O)N[C@@H](Cc3cccnc3)C(=O)N(C)CC(=O)N[C@@H](CCCCNC(=O)COCCOCCN(C)C(=O)COCCOCCN(C)C(=O)CC[C@@H](C(=O)O)N(C)C(=O)CCCCCCCCCCCCCCCCCc3nnn[nH]3)C(N)=O)CCOCC2)NC1=O` [SEQ ID NO: 115, MeCO-r-Pen(3)-N-T-7MeW-K(Ac)-Pen(3)-AEF-6OH2Nal-THP-E-N-3Pya-Sar-K(PEG2NMePEG2NMegENMeCl8Tetrazole)-CONH2] (Ac-[dR][Pen]NT[Trp(7-Me)]K(Ac)[Pen][AEF][2Nal(6-OH)][Thp]EN[3Pal][Sar]K(X22)-NH2; disulfide 2-7), the IC50 was in the range of 0.1 to 1 nM in data set [1] (read-out: PBMC pSTAT3 IC50, PBMCs from healthy donors, IL-23 5 ng/mL, 30 minutes) and 10 to 100 nM in data set [2]. Besides, the ring closure, yield after HPLC in data set [3] (from Ac-dArg-Pen-Asn-Thr-7MeTrp-Lys(Ac)-Pen-AEF-6OH2Nal-THP-Glu-Asn-3Pya-Sar-Lys(PEG2NMePEG2NMegENMeCl8Tetrazole)-NH2, I2/MeOH, 20% MeCN/H2O, 0.503 mM) is 8.08%.
Take Ac-[dR][Pen]NT[Trp(7-(3-AcNH-Ph))]K(Ac)[Pen][AEF(G)][2Nal(6-OH)][Thp]EN[3Pal(5-Me)][Sar]-NH2 (disulfide 2-7 (inferred)) [SEQ ID NO: 15]: the “PBMC pSTAT3 IC50” value in data set [4] is less than 10 pM.

B1: SEQ ID NO: 11 (peptide)
peptide: XXNTXXXXXXENXX
modifications: MeCO-k(Me)3-Pen(3)-N-T-7(3NAcPh)W-K(Ac)-Pen(3)-AEF(G)-6OH2Nal-THP-E-N-5MePyridinAla-Sar-CONH2
As to B1, the “PBMC pSTAT3 IC50” value in data set [4] was less than 10 pM.

Source of the values: patent publication US20240279281A1, “Peptide Inhibitors of Interleukin-23 Receptor” (Janssen Pharmaceutica NV, priority 2023, published 2024).
